Data: patent US20150191606A1, “USE OF VANADIUM-CONTAINING PARTICLES AS A BIOCIDE” (priority 2012, published 2015)

B1: wild-type V-CPO from C. inaequalis: wild-type vanadium chloroperoxidase from C. inaequalis (protein, UniProt P49053 1-609, looked up)
Vanadium chloroperoxidase: MGSVTPIPLPKIDEPEEYNTNYILFWNHVGLELNRVTHTVGGPLTGPPLSARALGMLHLAIHDAYFSICPPTDFTTFLSPDTENAAYRLPSPNGANDARQAVAGAALKMLSSLYMKPVEQPNPNPGANISDNAYAQLGLVLDRSVLEAPGGVDRESASFMFGEDVADVFFALLNDPRGASQEGYHPTPGRYKFDDEPTHPVVLIPVDPNNPNGPKMPFRQYHAPFYGKTTKRFATQSEHFLADPPGLRSNADETAEYDDAVRVAIAMGGAQALNSTKRSPWQTAQGLYWAYDGSNLIGTPPRFYNQIVRRIAVTYKKEEDLANSEVNNADFARLFALVDVACTDAGIFSWKEKWEFEFWRPLSGVRDDGRPDHGDPFWLTLGAPATNTNDIPFKPPFPAYPSGHATFGGAVFQMVRRYYNGRVGTWKDDEPDNIAIDMMISEELNGVNRDLRQPYDPTAPIEDQPGIVRTRIVRHFDSAWELMFENAISRIFLGVHWRFDAAAARDILIPTTTKDVYAVDNNGATVFQNVEDIRYTTRGTREDPEGLFPIGGVPLGIEIADEIFNNGLKPTPPEIQPMPQETPVQKPVGQQPVKGMWEEEQAPVVKEAP

Tests used:
E. coli [1] = assay: E. coli growth inhibition test, OD at 595 nm; format: cell-based
Procedure: Overnight cultures of E. coli cells (OneShot® Chemically Competent E. Coli, Cat. No. C4040-10, Invitrogen) in LB media (Cat. No. X968.2, Carl-Roth, Germany) were initially done. For the growth inhibition tests cultures were prepared by initially dispersing VO(acac)2 (Sigma Aldrich, 0.08 mg/ml) in 5 ml LB medium to which KBr (1 mM) and H2O2 (100 μM) were added. To start the culture 20 μl of the overnight E. coli stock was added. The cultures were kept at 37° C. with agitation, and the OD was measured at 595 nm at different time points until 180 min (beginning of stationary phase). As controls either only VO(acac)2 or only H2O2/Br^− was added to the cultures in the concentrations given above. For comparative purposes the same assay was done with V2O5 nanowires (Example 1) in the same concentration range as VO(acac)2 (0.08 mg/ml).

E. coli [2] = assay: Biocidal rosine paint formulations on steel plates, DAPI fluorescence, qualitative; format: cell-based; conditions: Br- 1 mM, H2O2, 3 days at 37° C.
Procedure: A self-polishing rosine formulation was prepared as follows: 22 g of Rosine/Kolophonium (Aldrich) was mixed with 8 g Xylene (Aldrich) and stirred 45 min until well dissolved. Under continuous stirring 0.4 g Thixatrol Max (Elementis) and 1.5 g Bentone SD 1 (Elementis) were added and stirred for at least 5 min. Under continuous stirring 10 g zinc oxide (Aldrich) [optional], 9 g iron oxide red (Aldrich) [optional], 15 g talcum (Aldrich), ×g of biocide and 10-×g of barium sulfate as a filler were added, and the whole mixture was dispersed for at least 15 min at 600-900 rpm. Under stirring 8 g Xylene (Aldrich), 6.7 g Hordaflex LC 50 (Leuna-Tenside) and 8 g petrol 140/180 (Merck) were added.
Steel plates of 2×2 cm were painted directly with no previous treatment with said rosine formulation by brushing and drying for 3 days at room temperature. No surface characterization was performed. […]
After incubation the substrates were gently washed with LB media and PBS buffer. Bacterial cells were stained with […] (DAPI, 1 mg/ml), and fluorescence analysis was performed using an Olympus AHBT3 light microscope together with an AH3-RFC reflected light fluorescence attachment. The presence of bacterial colonies was easily detected by the presence of bright blue “dots” or “clusters”. […]

V-CPO from C. inaequalis = V-CPO from C. inaequalis (Curvularia inaequalis, UniProt P49053, L241V/P395D/T343A); conditions: cited from earlier work
Sequence of V-CPO from C. inaequalis (P49053 whole entry L241V/T343A/P395D): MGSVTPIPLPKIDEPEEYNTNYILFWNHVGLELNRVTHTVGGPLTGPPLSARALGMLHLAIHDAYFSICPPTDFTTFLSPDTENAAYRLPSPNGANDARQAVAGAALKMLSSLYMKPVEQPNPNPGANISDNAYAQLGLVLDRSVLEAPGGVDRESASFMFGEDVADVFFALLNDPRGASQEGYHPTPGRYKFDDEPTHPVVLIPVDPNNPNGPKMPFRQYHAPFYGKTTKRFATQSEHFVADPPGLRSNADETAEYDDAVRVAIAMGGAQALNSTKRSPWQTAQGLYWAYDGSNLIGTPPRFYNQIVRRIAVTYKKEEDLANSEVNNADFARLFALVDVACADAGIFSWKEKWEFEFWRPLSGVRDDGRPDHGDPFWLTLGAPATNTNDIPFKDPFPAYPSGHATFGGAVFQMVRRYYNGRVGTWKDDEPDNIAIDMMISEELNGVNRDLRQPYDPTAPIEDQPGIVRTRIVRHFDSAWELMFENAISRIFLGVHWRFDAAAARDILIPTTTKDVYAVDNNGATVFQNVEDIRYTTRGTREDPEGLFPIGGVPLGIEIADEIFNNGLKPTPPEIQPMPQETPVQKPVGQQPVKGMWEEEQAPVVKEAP

Molecule | Decay in E. coli growth (%) (E. coli [1]; 0.08 mg/ml, KBr 1 mM, H2O2 100 μM as named in sample, 180 min) | antimicrobial activity by itself (E. coli [1]; without H2O2/Br-) | adherence of E. coli to painted surface (E. coli [2]; 0.5% biocide in dry film) | adherence of E. coli to painted surface (E. coli [2]; 10% biocide in dry film) | optimal pH (V-CPO from C. inaequalis)
Vanadyl acetylacetonate [VO(acac)2] | 6% | no relevant antimicrobial activity | inhibited the adhesion of E. coli | inhibited the adhesion of E. coli | 
B1 |  |  |  |  | 5.5
